# Laboratory results reported in patent US20130123253A1, “MODULATORS OF CENTRAL NERVOUS SYSTEM NEUROTRANSMITTERS” (HUMAN BIOMOLECULAR RESEARCH INSTITUTE, priority 2004, published 2013).
# Where two headings read alike, the source gives them in different places.
# What was measured:
# human PDE4D3 = target: T1, human PDE4D3 (Homo sapiens, UniProt Q08499); test: Inhibition of cAMP hydrolysis by recombinant human PDE4D3; type: biochemical
# T1 construct: made in house; host or cells: Cos 7 cells (construct and cells a gift from Dr. Conti, Stanford)
# T1 sequence (Q08499 1-673 isoform Q08499-2): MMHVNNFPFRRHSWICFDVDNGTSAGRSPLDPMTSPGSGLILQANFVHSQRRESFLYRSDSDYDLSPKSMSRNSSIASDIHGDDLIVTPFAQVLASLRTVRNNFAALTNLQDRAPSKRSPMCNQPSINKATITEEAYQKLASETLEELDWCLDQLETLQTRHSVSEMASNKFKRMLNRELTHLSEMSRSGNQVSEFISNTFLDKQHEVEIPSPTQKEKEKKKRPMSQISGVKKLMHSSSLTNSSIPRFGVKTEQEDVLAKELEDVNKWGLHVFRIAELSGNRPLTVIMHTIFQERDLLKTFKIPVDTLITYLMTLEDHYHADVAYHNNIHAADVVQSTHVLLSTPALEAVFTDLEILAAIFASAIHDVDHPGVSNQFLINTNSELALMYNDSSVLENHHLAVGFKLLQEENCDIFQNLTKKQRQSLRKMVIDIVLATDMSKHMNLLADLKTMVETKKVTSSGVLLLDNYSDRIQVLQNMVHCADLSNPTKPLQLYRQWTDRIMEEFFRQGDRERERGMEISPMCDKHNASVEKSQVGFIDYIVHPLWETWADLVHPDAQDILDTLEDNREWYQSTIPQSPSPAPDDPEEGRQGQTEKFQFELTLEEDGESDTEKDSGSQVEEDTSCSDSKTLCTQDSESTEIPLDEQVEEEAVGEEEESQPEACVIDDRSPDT
# Description: The PDE construct was transfected into Cos 7 cells in round culture dish (100×20 mm). The cells were then harvested and homogenized with lysis buffer. The crude homogenate was spun at maximum speed in a microfuge. The supernatant fluid was saved as an extract. […] The PDE construct and Cos 7 cells were a kind gift from Dr. Conti at the Stanford University School of Medicine.
# (§1) PDE4 enzyme assays were carried out as described previously. Studies with recombinant PDE4 enzymes were carried out in the laboratory of Professor Marco Conti (Stanford University, Palo Alto, Calif.).
# human PDE4B3 = target: T2, human PDE4B3 (Homo sapiens, UniProt Q07343); test: Inhibition of cAMP hydrolysis by recombinant human PDE4B3; type: biochemical; settings: Example 29
# T2 construct: made in house
# T2 sequence (Q07343 1-721 isoform Q07343-3): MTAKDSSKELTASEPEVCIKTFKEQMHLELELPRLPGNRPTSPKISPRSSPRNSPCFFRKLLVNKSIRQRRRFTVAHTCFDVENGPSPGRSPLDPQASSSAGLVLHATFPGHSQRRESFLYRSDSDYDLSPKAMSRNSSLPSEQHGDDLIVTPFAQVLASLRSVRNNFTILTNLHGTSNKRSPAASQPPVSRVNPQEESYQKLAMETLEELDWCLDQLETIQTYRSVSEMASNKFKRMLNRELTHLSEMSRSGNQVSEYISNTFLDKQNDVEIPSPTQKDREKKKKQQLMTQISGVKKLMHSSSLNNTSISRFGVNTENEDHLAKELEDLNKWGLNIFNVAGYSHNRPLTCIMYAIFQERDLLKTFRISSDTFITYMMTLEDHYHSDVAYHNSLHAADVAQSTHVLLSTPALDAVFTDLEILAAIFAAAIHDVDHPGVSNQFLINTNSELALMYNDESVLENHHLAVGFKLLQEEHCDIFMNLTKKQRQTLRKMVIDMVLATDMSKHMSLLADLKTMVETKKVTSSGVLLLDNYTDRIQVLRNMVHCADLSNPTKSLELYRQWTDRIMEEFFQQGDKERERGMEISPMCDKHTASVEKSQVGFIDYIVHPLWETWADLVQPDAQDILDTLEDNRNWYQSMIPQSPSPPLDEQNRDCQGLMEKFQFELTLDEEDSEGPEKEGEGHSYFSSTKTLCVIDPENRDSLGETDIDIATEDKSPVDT
# Description: as §1
# human PDE4A1 = target: T3, human PDE4A1 (Homo sapiens, UniProt P27815); test: Inhibition of cAMP hydrolysis by recombinant human PDE4A1; type: biochemical
# T3 construct: made in house
# T3 sequence (P27815 1-647 isoform P27815-4): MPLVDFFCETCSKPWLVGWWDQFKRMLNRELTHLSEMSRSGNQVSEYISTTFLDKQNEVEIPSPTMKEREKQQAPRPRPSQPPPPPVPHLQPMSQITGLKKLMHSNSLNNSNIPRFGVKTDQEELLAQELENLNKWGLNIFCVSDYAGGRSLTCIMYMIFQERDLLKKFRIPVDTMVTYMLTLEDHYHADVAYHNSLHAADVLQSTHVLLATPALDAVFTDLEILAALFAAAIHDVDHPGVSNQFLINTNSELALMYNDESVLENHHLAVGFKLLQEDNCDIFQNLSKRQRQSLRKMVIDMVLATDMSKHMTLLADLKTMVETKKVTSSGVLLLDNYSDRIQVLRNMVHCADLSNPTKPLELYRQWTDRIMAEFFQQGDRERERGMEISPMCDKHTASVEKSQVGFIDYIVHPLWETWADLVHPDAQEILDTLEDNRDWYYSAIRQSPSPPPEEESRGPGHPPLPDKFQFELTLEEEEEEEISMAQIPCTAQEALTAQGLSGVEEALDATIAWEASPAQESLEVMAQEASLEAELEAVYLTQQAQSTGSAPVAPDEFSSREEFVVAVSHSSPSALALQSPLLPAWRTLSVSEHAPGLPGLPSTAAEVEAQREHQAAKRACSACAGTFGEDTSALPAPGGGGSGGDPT
# Description: as §1
# mice = test: Morris water maze test; type: in vivo, mouse; settings: 3 mg/kg, compared to control mice
# Description: Compounds 19 and 115 were tested in a Morris water maze test. The escape latency (time to climb onto a hidden platform) for each mouse was recorded as a memory test. […] Compared to a group of control mice, compound 19 and 115 caused a 30% improvement in memory at 3 mg/kg. […] This is not completely unexpected as SSRIs often require repeated dosing to see a large and significant effect. […] Multiple dosing likely will increase the efficacy of the compounds tested.
# ICR mice = test: Forced-swim test in ICR mice; type: in vivo, mouse
# Description: Forty male ICR mice, weighed 26.2±0.3 g, were housed in a temperature-controlled room (22-23° C.) and maintained on a 12-hour on 12-hour off light cycle (lights on at 6:00 AM). Water and food were freely available in the home cages. […] Saline containing the same percentage of DMSO was used as vehicle. The lower doses were tested followed by the larger doses 1 week later, when the mice were again randomly divided into four groups as described above. The forced-swim test (FST) was carried out as described previously. Mice were given a swimming pretest session, once a day for two successive days. Twenty-four hours after the last session, mice were injected vehicle or the lower dose of each test compound by the i.p. route 30 min prior to the FST. One week later, administration of the larger dose of each of the test compounds was repeated. During the pretest and test sessions, each mouse was placed for 6 min in a plastic cylinder (45 cm high×20 cm diameter), which was filled to a depth of 28 cm with water (23±1° C.). The duration of immobility, which was defined as floating in an upright position without additional activity other than that necessary for the animal to keep its head above water, was recorded.
# [1] = Mouse liver microsome stability assay; type: in vitro ADME
# Description: A typical assay mixture contained either mouse or rat liver microsomes (0.5 mg of protein), […] potassium phosphate buffer (pH 7.4), 40 μM test compounds, 0.5 mM NADP+, 0.5 mM glucose-6-phosphate, 5 IU/mL glucose-6-phosphate dehydrogenase, 1 mg/mL diethylenetriaminepentaacetic acid (DETAPAC) and 5 mM MgCl2 in a final incubation volume of 0.1 mL. After 0, 10, 25, 40 and […], the incubations were stopped by the addition of 1 ml CH2Cl2/2-propanol (3:1 v:v). The mixture was centrifuged at 12,000×g for 1 min, and the organic layer was separated from the aqueous fraction. The organic fraction was evaporated with a stream of argon and the residue was taken up in methanol (200 μL) and injected into the HPLC system described above.
# (§2) Microsomal incubations (final volume 0.25 mL) with the SSRIs, dual PDE4 inhibitor/SSRIs or PDE4 inhibitor was done with an HPLC assay as described above. Diluted stocks of either mouse, human or rat liver microsomes (0.5 mg of protein), […] potassium phosphate buffer (pH 7.4), 0.5 mM NADI)^+, 0.5 mM glucose-6-phosphate, 5 IU/mL glucose-6-phosphate dehydrogenase, 0.6 mM DETAPAC, and 3 mM MgC12 were combined and placed on ice. For a metabolic stability assay, either vehicle or 40 μM test compound was added and the incubation was initiated at 37° C. with constant shaking. After 0, 10, 25, 40 and 60 min, the incubations were stopped by the addition of 1 mL CH2Cl2/2-propanol (3:1, v:v). After thorough mixing, the organic layer was separated from the aqueous portion by centrifugation at 12,000×g. The organic material was evaporated with a stream of argon. The residue was dissolved in methanol (200 μL) and the sample was analyzed by HPLC.
# [2] = Human liver microsome stability assay; type: in vitro ADME; settings: for half-life at 40 μM: human, liver microsomes, pH 7.4, Table 16, read-out: HLM t1/2
# Description: as §2
# DAT, SERT or NET = test: Binding and reuptake inhibition in HEK cells containing DAT, SERT or NET (overall statement); type: cell-based, human; settings: for transporter inhibition potency: DAT, SERT, NET binding and reuptake
# Description: The data cannot be directly compared with Table 1 because the compounds of Table 3 were mixtures of diastereomers and isomers at all centers of chirality.
# Transporter Binding Assays. […] Cells were scraped from plates and centrifuged for […] at 30,000×g and the pellet was re-suspended in 0.32 M sucrose with a Polytron at a setting of 1 for 5 sec. […] Membranes were pre-incubated with test compounds for […] before addition of [^125I]RTI-55. […] The incubations were done in the dark and terminated by filtration onto a Whatman GF/C filters using a 96-well Tomtech cell harvester (Tomtech, Orange, Conn.). Scintillation fluid was added to each filter spot and radioactivity remaining on the filter was determined using a Wallace β-plate reader (Wallace Labs, Cranbury, N.J.).
# rodent PDE4 = test: Inhibition of rodent PDE4 (rolipram binding sites); settings: Table 4
# Description: IC50 values for inhibitor interaction with this site were calculated by nonlinear regression analysis of competition curves for unlabeled PDE4 inhibitors; Ki values were determined according to the method of Cheng and Prusoff (1973). […] Competition curves for the PDE4 inhibitors were subjected to nonlinear regression analysis and IC50 values with which the inhibitors bind to each of the binding sites was determined; K1 values were determined according to the method of Cheng and Prusoff (1973).
# Swiss-Webster mice = test: animal or person; type: in vivo, mouse
# Description: A time course/dose response study of cocaine-induced locomotor stimulation was conducted beginning Feb. 21, 2000, according to a locomotor activity studies time course protocol. […]. A panel of infrared beams (16 beams) and corresponding photodetectors were located in the horizontal direction along the sides of each activity chamber. A 7.5-W incandescent light above each chamber provided dim illumination. Fans provided an 80-dB ambient noise level within the chamber. […]. In all studies, horizontal activity (interruption of photocell beams) was measured for 8 hours within 10-min periods, beginning at 0800 hrs (2 hours after lights on). Testing was conducted with one mouse per activity chamber.
# . Behavioral observations were recorded on each mouse at 30, 120 and 480 minutes following 100 mg/kg compound 31,646.
# Balb/c mice = test: Forced-swim test in Balb/c mice; type: in vivo, mouse; settings: for duration of immobility, forced-swim test, acute: i.p. 30 min prior, fluoxetine 20 mg/kg, test compounds 10 mg/kg
# Description: The study was conducted according to a standard operation procedure and in accordance with all Federal regulations. Water and food were freely available in the home cages. […] Mice were given a swimming pretest session, once a day for two successive days. […] During the pretest and test sessions, each mouse was placed for […] in a plastic cylinder (45 cm high×20 cm diameter), which was filled to a depth of 28 cm with water (23±1° C.). The duration of immobility, which was defined as floating in an upright position without additional activity other than that necessary for the animal to keep its head above water, was recorded. For the subchronic administration tests, the animals were separated as above and vehicle or chemicals were given by i.p. administration 23, 5 and 1 hr before the FST. The subchronic experiments were done similar to the study described above except for the pretest training that was not carried out.
# Mice in the first session were treated with vehicle or the drugs acutely, whereas mice in the second sessions were treated subchronically, i.e., vehicle or drugs were given i.p. 23, 5, and 1 hr before the FST. The experiment was performed similar to Experiment 1 except for the pretest training, which was not carried out in the second session.
# [3] = Example 29, read-out: Ki, human PDE4D3
# [4] = Example 29, read-out: Ki, human PDE4A1
# [5] = Table 14, read-out: Human PDE4A1 Ki
compound,measurement,setting,value
"COc1ccc(C2=NNC(=O)[C@@H]3CC=CC[C@H]23)cc1OC (racemic) [Compound 19, 4-(3,4-Dimethoxy-phenyl)-4a,5,8,8a-tetrahydro-2H-phthalazin-1-one, reference compound]",PDE4A1/PDE4D3 inhibitory selectivity ratio,human PDE4D3,< 159 fold
same,PDE4B3/PDE4D3 inhibitory selectivity ratio,human PDE4D3,40 fold
same,Ki,human PDE4D3; [3],6.3 nM
same,Ki,human PDE4B3,250 nM
same,Ki,human PDE4A1; [4],> 1000 nM
same,Ki,human PDE4A1; [5],< 1000 nM
same,improvement in memory (escape latency),mice,30%
same,"immobility, forced-swim test, acute, higher dose","ICR mice; 3 mg/kg i.p., vs vehicle, P<0.05",significantly reduced immobility
same,"duration of immobility, forced-swim test, acute",ICR mice; 0.3 and 3 mg/kg i.p.,decreased duration of immobility in a dose-dependent manner
same,"half life, mouse liver microsomes",[1]; NADPH,3.52 h
same,MLM t1/2,[1]; Table 16,3.522 h
same,half-life at 40 μM,[2],> 1 h
same,effect on RTI-55 binding or reuptake at any transporter,"DAT, SERT or NET; hDAT, hSERT, hNET",essentially no measurable effect
"COc1ccc(C2=NNC(=O)C3CC=CCC23)cc1OC (racemic) [Compound 19, 4-(3,4-Dimethoxy-phenyl)-4a,5,8,8a-tetrahydro-2H-phthalazin-1-one, reference compound]",pIC50,rodent PDE4,6.7
same,Ki,"human PDE4D3; Table 5, recombinant human PDE 4D3, read-out: Ki",6.3 nM
same,transporter inhibition potency,"DAT, SERT or NET",no transporter inhibition potency
COc1ccc(F)cc1CCC1CCC(CCNCCCCCN2N=C(c3ccc(OC)c(OC)c3)C3CC=CC[C@H]3C2=O)O1 (stereo partly drawn) [Compound 115],improvement in memory (escape latency),mice,30%
"COC(=O)[C@H]1[C@@H](OC(=O)c2ccccc2)C[C@@H]2CC[C@H]1N2C [Cocaine, reference compound]",onset of stimulant effects after injection,Swiss-Webster mice; 10 and 20 mg/kg,≤ 10 min
same,ED50,"Swiss-Webster mice; Mus musculus, IP, 0-30 min, read-out: ED50 (dose producing 1/2 maximal stimulant activity)",5.8 mg/kg
same,dose at maximum horizontal activity,Swiss-Webster mice; estimated from fitted curve,23.4 mg/kg
same,maximum horizontal activity,"Swiss-Webster mice; estimated from fitted curve, 0-30 min",5520 counts/10 min
"COc1ccc(F)cc1CCC1CCC(CCN)O1 (stereo not drawn) [Compound 14, 2-Aminoethyl-5-(2′-methoxy-5′-fluorophenethyl)tetrahydrofuran]","immobility, forced-swim test, subchronic","Balb/c mice; i.p. 23, 5 and 1 hr prior, fluoxetine 10 mg/kg, 18k/l or 14 10 mg/kg, 21 1 mg/kg",did not change immobility
same,"duration of immobility, forced-swim test, acute",Balb/c mice,did not markedly alter the duration of immobility
same,"immobility, forced-swim test, acute",ICR mice; 10 and 30 mg/kg i.p.,"tended to decrease immobility, but it was not statistically significant"
same,"half life, mouse liver microsomes",[1]; NADPH,0.933 h
same,MLM t1/2,[1]; Table 16,0.933 h
"2-(5-Bromo-pentyl)-4-(3,4-dimethoxy-phenyl-4a,5,8,8a-tetrahydro-2H-phthalazin-1-one [Compound 20]",transporter inhibition potency,"DAT, SERT or NET",no transporter inhibition potency
COc1ccc(F)c(CCCC2CCC(CCNCCCCCN3N=C(c4ccc(OC)c(OC)c4)C4CC=CC[C@H]4C3=O)O2)c1 (stereo partly drawn) [Compound 22],pIC50,rodent PDE4,6.3
same,Ki,human PDE4D3; [3],1.2 nM
same,Ki,human PDE4B3,500 nM
same,Ki,human PDE4A1; [4],> 1000 nM
same,Ki,human PDE4A1; [5],< 1000 nM
same,metabolism in mouse liver microsomes,"[1]; NADPH, up to 60 min",No detectable metabolic instability
same,half-life at 40 μM,"[1]; mouse, liver microsomes, pH 7.4, Table 16, read-out: MLM t1/2",> 1 h
same,metabolism in human liver microsomes,"[2]; NADPH, up to 60 min",No detectable metabolic instability
same,half-life at 40 μM,[2],> 1 h
"COc1ccc(F)cc1CCCC1CCC(CCN)O1 (stereo not drawn) [Compound 15, 2-Aminoethyl-5-(3′-(2″-methoxy-5″-fluorophenyl)-1′-propyl)tetrahydrofuran]","duration of immobility, forced-swim test, acute",Balb/c mice,did not markedly alter the duration of immobility
"NCCC1CCC(CCc2ccccc2)O1 (stereo not drawn) [Compound 54, 2-(Aminoethyl)-5-(phenethyl)tetrahydrofuran]",other behavioral observations,"Swiss-Webster mice; 100 mg/kg, 30, 120 and 480 minutes",No unusual effects were observed
same,onset of depressant effects after injection,Swiss-Webster mice; 30 and 100 mg/kg,≤ 10 min
same,ID50 (dose producing 1/2 maximal depressant activity),"Swiss-Webster mice; IP, 0-30 min after injection",39.8 mg/kg
same,CNS stimulation,"Swiss-Webster mice; mouse, in vivo",did not cause CNS stimulation
"COc1ccc(C2CNC(=O)C2)cc1OC1CCCC1 (stereo not drawn) [Rolipram, reference compound]","forced-swim test behavior, acute",ICR mice; 0.5 mg/kg,did not alter FST behavior
